From US7271162B2, “Cycloocta[b][1,4]diazepino[6,7,1-hi]indoles and derivatives” (Wyeth, priority 2000, dated 2007) come the findings set out here.

The structures appear in SMILES notation. Structures can show the parent of a compound that is named as a salt. Where two headings read alike, the source gives them in different places.

The target of one data set is T1, human 5-HT2C receptor (Homo sapiens, UniProt P28335).
T1 sequence (P28335 33-458): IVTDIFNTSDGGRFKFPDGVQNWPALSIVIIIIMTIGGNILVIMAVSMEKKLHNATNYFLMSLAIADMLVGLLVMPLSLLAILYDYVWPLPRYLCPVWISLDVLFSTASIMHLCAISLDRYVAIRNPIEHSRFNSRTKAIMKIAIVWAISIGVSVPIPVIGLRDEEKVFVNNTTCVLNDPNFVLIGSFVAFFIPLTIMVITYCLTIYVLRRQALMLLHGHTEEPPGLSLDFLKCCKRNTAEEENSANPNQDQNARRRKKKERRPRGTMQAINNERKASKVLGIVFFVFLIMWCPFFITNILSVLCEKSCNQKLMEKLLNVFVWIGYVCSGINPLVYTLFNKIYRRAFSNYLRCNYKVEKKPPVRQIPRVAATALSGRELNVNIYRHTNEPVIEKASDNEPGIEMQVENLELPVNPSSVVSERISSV
As to the kind of experiment: Stimulation of [3H] Inositol Monophosphate Production by 5HT2C Agonists in transfected CHO cells. The conditions noted are these: read-out: 5HT2C Stimulation of IP3 % Emax (5HT, 100%).

In data set [1] the target is T2, human 5-hydroxytryptamine2C (h5HT2C) receptor (Homo sapiens, UniProt P28335).
T2 construct: expressed in transfected cells; host or cells: CHO (Chinese Hamster Ovary) cells; membrane preparation
T2 sequence (P28335 33-458): T1 sequence (P28335 33-458)
As to the kind of experiment: 5HT2C Receptor Binding Test Procedure ([125I] DOI displacement, membranes of transfected CHO cells).

Protocol for human 5-HT2C receptor: One (1) ml of maintenance medium containing 1 μCi/ml myo-[^3H] inositol was added to each well. After 48 hours labeling, the cells were washed once with 0.5 ml DMEM containing 25 mM HEPES and 10 mM LiCl, then preincubated with the medium for 30 min (antagonists were included in this period if tested). At the end of the preincubation, the medium was removed, the cells were then incubated with test compounds (in presence of antagonists if needed) for 30 min. The reaction was terminated by removal of the incubation solution and addition of 0.5 ml ice-cold 5% PCA, followed by 15 to 30 min incubation on ice. 200 μl of 0.5 M Tes/1.5 M K2CO3 was added to each well to neutralize to pH 7, and plates were left on ice for another 15 to 30 min to precipitate all salts. The liquid and solid phases were separated by centrifugation.
A portion (350 μl) of the upper aqueous phase was applied to Dowex AG-1X8 (formate form, 100-200 mesh) columns. The columns were then washed stepwise with 10 ml of water and 10 ml of 25 mM ammonium formate to remove free myo-[^3H]inositol and deacylated phosphoinositol, respectively. Finally 10 ml of 0.2 M ammonium formate solution was applied to the columns to elute [^3H] inositol monophosphate ([^3H] IP1) directly into scintillation vials. Of this eluate, 1 ml was used to determine radioactivity by scintillation counting. […]

The term melting point denotes the temperature, or range, at which the solid turns liquid. The molecule `c1cc2c3c(c1)c1c(n3CCNC2)CCCCCC1` (as salt: hydrochloride) [Example 1, 1,2,3,4,8,9,10,11,12,13-Decahydrocycloocta[b][1,4]diazepino[6,7,1-hi]indole] had a melting point of 316 to 318 °C. The term Emax denotes the greatest response seen or fitted, relative to the assay's reference. Take `c1cc2c3c(c1)c1c(n3CCNC2)CCCCCC1` [Example 1, 1,2,3,4,8,9,10,11,12,13-Decahydrocycloocta[b][1,4]diazepino[6,7,1-hi]indole]: the Emax on human 5-HT2C receptor turned out to be 120%.

As a reminder, the Ki is the dissociation constant of the complex between target and ligand, obtained from inhibition or displacement. In turn, `c1cc2c3c(c1)C1CCCCCCC1N3CCNC2` (stereo not drawn) [Example 2, 1,2,3,4,7b,8,9,10,11,12,13,13a-Dodecahydrocycloocta[b][1.4]diazepino[6,7,1-hi]indole] returned a melting point of 58 to 63 °C. Besides, the affinity in data set [1] corresponds to a Ki of 65 nM. For `CSc1ccc2c(c1)C(N1CCN(C)CC1)Cc1ccccc1S2` (stereo not drawn) [Methiothepin], the Ki in data set [1] (reference compounds, [125I] DOI binding, h5HT2C CHO membranes, read-out: Ki value and 95% confidence interval) was 4.6 nM.

One may read the Kd as the free concentration of one partner at which half of the binding sites on the other are occupied at equilibrium, for simple one-to-one binding. Turning to `COc1cc(CC(C)N)c(OC)cc1I` (stereo not drawn) [[^125I] DOI], the Kd in data set [1] (read-out: dissociation constant, KD of [125I] DOI at the human serotonin 5HT2C receptor, saturation binding with increasing concentrations of [125I] DOI) stood at 0.4 nM.
